Patent US20250250286A1, “FUSED PYRIMIDINE DERIVATIVES AS KRAS ONCOPROTEIN INHIBITORS” (BETA PHARMA, INC., priority 2021, published 2025)
Counter-ions that a name gives are not always drawn.

Biological target: T1, KRAS G12D (Homo sapiens, UniProt P01116, G12D)
T1 construct: Recombinant human KRAS G12D (aa 2-169, expressed in E. coli); His-tag (TEV cleavable) (N); purchased Reaction Biology Corporation (RBC) SOS1: RBC cat #MSC-11-502; KRAS G12D: not given; host or cells: E. coli
Test: KRAS G12D/SOS1 Nucleotide Exchange Assay (SOS1-mediated Bodipy-GDP to GTP exchange)
Type: biochemical
Conditions: rate constant method (plateau = 0), Bodipy-GDP/KRAS G12D as substrate, 0.5% DMSO, 30 min pre-incubation at RT
Procedure: The compound pre-incubation time was 30 min at RT and the curve fits were performed when the activities at the highest concentration of compounds were less than 65%.
Reaction Buffer: 40 mM HEPES 7.4, 10 mM MgCl2, 1 mM DTT 0.002% Triton ×100, 0.5% DMSO.
KRAS is pre-loaded with a 5-fold excess of Bodipy-GDP. The excess Bodipy-GDP is separated from loaded protein using a spin desalting column.
• 1. Deliver 10 μL of 1.5× KRAS solution in freshly prepared reaction buffer to reaction wells. • 2. Deliver compounds in 100% DMSO into buffer using acoustic technology (Echo550; nanoliter range). • 3. Incubate compounds with KRAS for 30 minutes at room temperature. • 4. Prepare 3× (SOS1+GTP) solution in reaction buffer. • 5. Deliver 5 μL of SOS1+GTP solution into reactions wells (deliver GTP only to column 1 for no SOS1 control). • 6.
Data Analysis: The fluorescence data was normalized using the equation below and fitted to “one phase exponential decay” equation using GraphPad prism software. The plateau was fixed to zero (use for non-covalent inhibitors) and rate ×1000 was used to calculate the IC50 values.
[formula] • where Yraw is defined as fluorescence at time t, Ao is the average initial fluorescence with no SOS1, and M is the minimum fluorescence at the end of the reaction at the maximum SOS1.
The background subtracted signals (no SOS1 protein wells were used as background) were converted to % activity relative to DMSO controls. Data was analyzed using GraphPad Prism 4 with “sigmoidal dose-response (variable slope)”; 4 parameters with Hill Slope. The constraints were bottom (constant equal to 0) and top (must be less than 120).

T1 sequence (P01116 2-169 G12D): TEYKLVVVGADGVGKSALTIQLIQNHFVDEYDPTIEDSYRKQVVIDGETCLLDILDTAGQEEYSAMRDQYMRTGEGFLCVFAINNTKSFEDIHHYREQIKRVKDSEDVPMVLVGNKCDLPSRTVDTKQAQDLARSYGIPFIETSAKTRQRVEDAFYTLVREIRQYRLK

Question: Which IC50 does the source give for `Clc1cccc2cccc(-c3ccc4c(N5C[C@H]6CC[C@@H](C5)N6)nc(OCC56CCCN5CCC6)nc4n3)c12` [Example 4, 4-((1R,5S)-3,8-diazabicyclo[3.2.1]octan-3-yl)-7-(8-chloronaphthalen-1-yl)-2-((tetrahydro-1H-pyrrolizin-7a(5H)-yl)methoxy)pyrido[2,3-d]pyrimidine] here?
Answer: 8600 nM

Question: How did the IC50 turn out when `CN1CCC[C@H]1COc1nc(N2C[C@H]3CC[C@@H](C2)N3)c2ccc(-c3cccc4cccc(Cl)c34)nc2n1` [Example 3, 4-((1R,5S)-3,8-Diazabicyclo[3.2.1]octan-3-yl)-7-(8-chloronaphthalen-1-yl)-2-(((S)-1-methylpyrrolidin-2-yl)methoxy)pyrido[2,3-d]pyrimidine] was run?
Answer: > 10000 nM

Question: `C#Cc1c(F)ccc2cc(O)cc(-c3cnc4c(N5C[C@H]6CC[C@@H](C5)N6)nc(OC[C@@]56CCCN5C[C@H](F)C6)nc4c3)c12` [Example 5, 4-(4-((1R,5S)-3,8-Diazabicyclo[3.2.1]octan-3-yl)-2-(((2R,7aS)-2-fluorotetrahydro-1H-pyrrolizin-7a(5H)-yl)methoxy)pyrido[3,2-d]pyrimidin-7-yl)-5-ethynyl-6-fluoronaphthalen-2-ol] was tested. Which IC50 did it give?
Answer: 28 nM

Question: `Oc1cc(-c2cnc3c(N4C[C@H]5CC[C@@H](C4)N5)nc(OCC45CCCN4CCC5)nc3c2)c2ccccc2c1` [Example 2, 4-(4-((1R,5S)-3,8-Diazabicyclo[3.2.1]octan-3-yl)-2-((tetrahydro-1H-pyrrolizin-7a(5H)-yl)methoxy)pyrido[3,2-d]pyrimidin-7-yl)naphthalen-2-ol] was tested. Which IC50 did it give?
Answer: 35 ± 5.7 nM

Question: How did the IC50 turn out when `Clc1cccc2cccc(-c3cnc4c(N5C[C@H]6CC[C@@H](C5)N6)nc(OCC56CCCN5CCC6)nc4c3)c12` [Example 1, 4-((1R,5S)-3,8-Diazabicyclo[3.2.1]octan-3-yl)-7-(8-chloronaphthalen-1-yl)-2-((tetrahydro-1H-pyrrolizin-7a(5H)-yl)methoxy)pyrido[3,2-d]pyrimidine hydrochloride (1:3)] was run?
Answer: 610 nM
